Active and inactive are the calls of the source.
Key:
Assay type in all cases: functional, cell-based
[1] = molecular target: Mu-type opioid receptor (Homo sapiens) (UniProt P35372); assay: Antagonistic activity at mu opioid receptor expressed in HEK293 cells co-transfected with chimeric G-protein delta 6-Gqi4-myr assessed as inhibition of DAMGO-induced calcium release at 1 uM
[2] = molecular target: Kappa-type opioid receptor (Homo sapiens) (UniProt P41145); assay: Antagonistic activity at kappa opioid receptor expressed in HEK293 cells co-transfected with chimeric G-protein delta 6-Gqi4-myr assessed as inhibition of U69593-induced calcium release at 1 uM
Sequence of Kappa-type opioid receptor (Homo sapiens) (P41145 whole entry): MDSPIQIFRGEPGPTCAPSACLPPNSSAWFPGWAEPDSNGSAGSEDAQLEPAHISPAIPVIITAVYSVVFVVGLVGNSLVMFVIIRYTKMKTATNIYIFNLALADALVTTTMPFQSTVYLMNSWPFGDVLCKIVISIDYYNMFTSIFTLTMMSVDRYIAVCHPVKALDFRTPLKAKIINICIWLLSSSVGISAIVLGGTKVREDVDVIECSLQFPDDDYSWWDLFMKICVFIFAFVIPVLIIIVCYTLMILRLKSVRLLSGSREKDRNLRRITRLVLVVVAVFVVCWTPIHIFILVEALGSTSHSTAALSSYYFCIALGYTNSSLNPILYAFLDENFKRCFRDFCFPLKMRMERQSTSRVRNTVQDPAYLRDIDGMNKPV

[3] = molecular target: T1, Opioid receptors; mu & kappa (Homo sapiens) (UniProt P41145+P35372); assay: Antagonistic activity at mu/kappa opioid receptor expressed in HEK293 cells co-transfected with chimeric G-protein delta 6-Gqi4-myr assessed as inhibition of U69593-induced calcium release at 1 uM
T1 sequence (P35372 whole entry, looked up): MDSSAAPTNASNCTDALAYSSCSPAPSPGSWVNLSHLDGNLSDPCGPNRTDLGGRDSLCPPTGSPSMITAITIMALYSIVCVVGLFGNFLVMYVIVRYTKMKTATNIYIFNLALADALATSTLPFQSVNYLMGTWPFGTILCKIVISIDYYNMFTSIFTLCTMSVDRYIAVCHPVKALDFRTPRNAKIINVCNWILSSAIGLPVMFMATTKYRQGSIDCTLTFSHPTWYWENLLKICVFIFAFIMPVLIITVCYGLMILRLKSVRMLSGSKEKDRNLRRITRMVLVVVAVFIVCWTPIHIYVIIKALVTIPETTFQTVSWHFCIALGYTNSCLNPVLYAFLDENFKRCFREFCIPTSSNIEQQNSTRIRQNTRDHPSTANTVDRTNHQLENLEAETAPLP
T1 sequence (P41145 whole entry, looked up): as the sequence (P41145 whole entry) above

[4] = molecular target: T1, Opioid receptors; mu & kappa (Homo sapiens); assay: Antagonistic activity at mu/kappa opioid receptor expressed in HEK293 cells co-transfected with chimeric G-protein delta 6-Gqi4-myr assessed as inhibition of DAMGO-induced calcium release at 1 uM

Measured: Activity

Sequence of Mu-type opioid receptor (Homo sapiens) (P35372 whole entry): as the sequence (P35372 whole entry, looked up) above

N=C(NCCCNC(=O)CNC(=O)CNC(=O)CCC(=O)NCC(=O)NCC(=O)N[C@H]1C[C@@H]2Oc3c(O)ccc4c3[C@@]23CCN(CC2CC2)[C@H](C4)[C@]3(O)C1)Nc1ccc2[nH]c3c(c2c1)C[C@@]1(O)[C@H]2Cc4ccc(O)c5c4[C@@]1(CCN2CC1CC1)[C@H]3O5
active: all assays above

N=C(NCCCCCNC(=O)CNC(=O)CNC(=O)CCC(=O)NCC(=O)NCC(=O)N[C@H]1C[C@@H]2Oc3c(O)ccc4c3[C@@]23CCN(CC2CC2)[C@H](C4)[C@]3(O)C1)Nc1ccc2[nH]c3c(c2c1)C[C@@]1(O)[C@H]2Cc4ccc(O)c5c4[C@@]1(CCN2CC1CC1)[C@H]3O5
active: all assays above

N=C(NCCCCNC(=O)CNC(=O)CNC(=O)CCC(=O)NCC(=O)NCC(=O)N[C@H]1C[C@@H]2Oc3c(O)ccc4c3[C@@]23CCN(CC2CC2)[C@H](C4)[C@]3(O)C1)Nc1ccc2[nH]c3c(c2c1)C[C@@]1(O)[C@H]2Cc4ccc(O)c5c4[C@@]1(CCN2CC1CC1)[C@H]3O5
active: all assays above

N=C(NCCNC(=O)CNC(=O)CNC(=O)CCC(=O)NCC(=O)NCC(=O)N[C@H]1C[C@@H]2Oc3c(O)ccc4c3[C@@]23CCN(CC2CC2)[C@H](C4)[C@]3(O)C1)Nc1ccc2[nH]c3c(c2c1)C[C@@]1(O)[C@H]2Cc4ccc(O)c5c4[C@@]1(CCN2CC1CC1)[C@H]3O5
active: all assays above

Source: ChEMBL document CHEMBL1156740, “A bivalent ligand (KMN-21) antagonist for mu/kappa heterodimeric opioid receptors” (Bioorg Med Chem Lett, 2009)
